Measurements as given in US20240158446A1, “CYCLIC COMPOUND HAVING SELECTIVE INHIBITORY ACTION ON KRAS OVER HRAS AND NRAS” (CHUGAI SEIYAKU KABUSHIKI KAISHA, priority 2021, published 2024).
Like-named read-outs stand apart in the source and are kept apart here. Where a SMILES comes first, the peptide text is derived from it. Bridges are numbered along the chain shown (N, C = ends). [ ]: non-standard residue; d: D form. The star is where a group is joined. hPhe(3,5-F2-4-CF3) = N[C@@H](CCc1cc(F)c(C(F)(F)F)c(F)c1)C(=O)O; NPrPhe(4-CF3) = CCCN[C@@H](Cc1ccc(C(F)(F)F)cc1)C(=O)O; NMeGly(cPent) = CN[C@H](C(=O)O)C1CCCC1; NMeD = CN[C@@H](CC(=O)O)C(=O)O; NMeL = CN[C@@H](CC(C)C)C(=O)O; αMeS = C[C@](N)(CO)C(=O)O; Morpholide = C1CN(*)CCO1; Sar = CNCC(=O)O

Tests used:
[1] = molecular target: GDP-bound KRAS wild-type protein (Homo sapiens, UniProt P01116); test: Binding to KRAS by surface plasmon resonance (SPR), Single Cycle Kinetics
Chain of GDP-bound KRAS wild-type protein (P01116 whole entry): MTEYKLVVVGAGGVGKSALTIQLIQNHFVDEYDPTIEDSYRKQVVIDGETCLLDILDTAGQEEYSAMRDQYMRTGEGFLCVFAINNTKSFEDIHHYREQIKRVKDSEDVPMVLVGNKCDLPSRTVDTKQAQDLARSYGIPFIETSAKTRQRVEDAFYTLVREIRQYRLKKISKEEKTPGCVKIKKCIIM

[2] = molecular target: GDP-bound NRAS wild-type protein (Homo sapiens, UniProt P01111); test: Binding to NRAS by surface plasmon resonance (SPR), Single Cycle Kinetics
Chain of GDP-bound NRAS wild-type protein (P01111 whole entry): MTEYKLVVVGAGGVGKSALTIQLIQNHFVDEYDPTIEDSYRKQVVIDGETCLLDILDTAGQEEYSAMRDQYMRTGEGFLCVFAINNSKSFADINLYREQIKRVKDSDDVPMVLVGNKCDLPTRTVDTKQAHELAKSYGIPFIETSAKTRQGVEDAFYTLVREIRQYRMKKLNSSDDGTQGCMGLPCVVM

[3] = molecular target: GDP-bound HRAS wild-type protein (Homo sapiens, UniProt P01112); test: Binding to HRAS by surface plasmon resonance (SPR), Single Cycle Kinetics
Chain of GDP-bound HRAS wild-type protein (P01112 whole entry): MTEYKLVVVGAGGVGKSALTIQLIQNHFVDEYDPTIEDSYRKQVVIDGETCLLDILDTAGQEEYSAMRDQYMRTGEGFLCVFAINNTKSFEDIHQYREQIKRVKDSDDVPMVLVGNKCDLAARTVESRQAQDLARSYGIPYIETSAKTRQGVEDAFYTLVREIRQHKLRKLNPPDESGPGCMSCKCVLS

[4] = test system: human lung cancer strain NCI-H441;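 further: cell proliferation inhibition after four days measured by CellTiter-Glo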
[5] = SPR Single Cycle Kinetics, GDP-bound KRAS wild-type protein, 1:1 binding model, read-out: KRAS KD
[6] = SPR, GDP-bound NRAS wild-type protein vs GDP-bound KRAS wild-type protein
[7] = SPR, GDP-bound HRAS wild-type protein vs GDP-bound KRAS wild-type protein
[8] = SPR, Single Cycle Kinetics, GDP-bound KRAS wild-type protein, read-out: KRAS KD

Row | SMILES | IC50 [4] | Kd [1, 8] | NRAS/KRAS (ratio of KD value for NRAS to KD value for KRAS) [2, 6] | HRAS/KRAS (ratio of KD value for HRAS to KD value for KRAS) [3, 7] | other results
1 | CCCN1C(=O)CN(C)C(=O)CN(C)C(=O)[C@H]([C@@H](C)CC)NC(=O)[C@H](CC(C)C)N(C)C(=O)C[C@@H](C(=O)N2CCOCC2)N(C)C(=O)[C@H](C2CCCC2)N(C)C(=O)[C@](C)(COC)NC(=O)[C@@H]2CCCN2C(=O)[C@H](CCc2cc(F)c(C(F)(F)F)c(F)c2)NC(=O)CN(C)C(=O)[C@@H]1Cc1ccc(C(F)(F)F)cc1 [PP0762] ([NMeL]I[Sar][Sar][NPrPhe(4-CF3)][Sar][hPhe(3,5-F2-4-CF3)]P[αMeS](Me)[NMeGly(cPent)][NMeD]-Morpholide; lactam N-11) | 30100 pM |  |  |  | Kd [1, 5]: 730 pM; NRAS/KRAS (ratio of KD value with respect to NRAS to KD value with respect to KRAS) [2, 6]: B (a compound having 3 or more and less than 10 is denoted as B); HRAS/KRAS (ratio of KD value with respect to HRAS to KD value with respect to KRAS) [3, 7]: B (a compound having 3 or more and less than 10 is denoted as B)
2 | CCC(CC)[C@H]1C(=O)N(C)[C@H](C(=O)N(C)C)CC(=O)N(C)[C@@H](COC)C(=O)N[C@@H]([C@@H](C)CC)C(=O)N(C)CC(=O)N(C)[C@H]2C/C=C\CCN(C2=O)[C@@H](CC2CCC(F)(F)CC2)C(=O)N(C)CC(=O)N[C@@H](CCc2ccc(C(F)(F)F)c(OC)c2)C(=O)N2C[C@@H](C)C[C@H]2C(=O)NC2(CC(C)(C)C2)C(=O)N1C [PP2442] | 79700 pM | 970 pM | A (a compound having 10 or more and less than 20 is denoted as A) | A (a compound having 10 or more and less than 20 is denoted as A) | 
3 | CC[C@H](C)[C@@H]1NC(=O)[C@H](COC)N(C)C(=O)C[C@@H](C(=O)N(C)C)N(C)C(=O)[C@H](C2CCCC2)N(C)C(=O)C2(CC(C)(C)C2)NC(=O)[C@@H]2C[C@@H](OC3CCCC3)CN2C(=O)[C@H](CCc2cc(F)c(C(F)(F)F)c(F)c2)NC(=O)CN(C)C(=O)[C@H](CC2CCC(F)(F)CC2)N2CC/C=C\C[C@@H](C2=O)N(C)C(=O)CN(C2CC2)C1=O [PP2634] | 45400 pM |  |  |  | Kd [1, 5]: 680 pM; NRAS/KRAS (ratio of KD value with respect to GDP-bound NRAS wild-type protein to KD value with respect to KRAS) ([2]; SPR KD ratio NRAS/KRAS, class symbols): A (a compound having 10 or more and less than 20 is denoted as A); HRAS/KRAS (ratio of KD value with respect to GDP-bound HRAS wild-type protein to KD value with respect to KRAS) ([3]; SPR KD ratio HRAS/KRAS, class symbols): A (a compound having 10 or more and less than 20 is denoted as A)
4 | CCC[C@H]1C(=O)N[C@@H]([C@@H](C)CC)C(=O)N(C2CC2)CC(=O)N(C)[C@H]2C/C=C\CCN(C2=O)[C@@H](Cc2ccc(C(F)(F)F)cc2)C(=O)N(C)CC(=O)N[C@@H](CCc2ccc(C(F)(F)F)c(OC)c2)C(=O)N2C[C@H](OCC)C[C@H]2C(=O)N(C)C2(CCC2)C(=O)N(C)[C@@H](C2CCCC2)C(=O)N(C)[C@H](C(=O)N2CCCCC2)CC(=O)N1C [PP3095, (2S,8S,12R,14S,20S,23S,27S,30S,36S,38Z)-20-cyclopentyl-32-cyclopropyl-12-ethoxy-8-[2-[3-methoxy-4-(trifluoromethyl)phenyl]ethyl]-4,16,19,22,26,35-hexamethyl-30-[(1S)-1-methylpropyl]-23-(piperidine-1-carbonyl)-27-propyl-2-[[4-(trifluoromethyl)phenyl]methyl]spiro[1,4,7,10,16,19,22,26,29,32,35-undecazatricyclo[34.5.1.0^10,14]dotetracont-38-ene-17,1′-cyclobutane]-3,6,9,15,18,21,25,28,31,34,42-undecone] |  | 670 pM | A (a compound having 10 or more and less than 20 is denoted as A) | A (a compound having 10 or more and less than 20 is denoted as A) | Kd ([1]; SPR, Single Cycle Kinetics, 1:1 binding model, read-out: KD value with respect to GDP-bound KRAS wild-type protein): 670 pM; ratio of the KD value with respect to GDP-bound NRAS wild-type protein to the KD value with respect to KRAS ([2]; SPR, KD(NRAS)/KD(KRAS)): A (a compound having 10 or more and less than 20 is denoted as A); ratio of the KD value with respect to GDP-bound HRAS wild-type protein to the KD value with respect to KRAS ([3]; SPR, KD(HRAS)/KD(KRAS)): A (a compound having 10 or more and less than 20 is denoted as A); IC50 ([4]; read-out: NCI-H441 cell proliferation inhibitory activity, 50% proliferation inhibitory concentration (IC50 value), NCI-H441, four days, CellTiter-Glo): 33700 pM
5 | CCO[C@@H]1C[C@H]2C(=O)NC3(CCC3)C(=O)N(C)[C@@H](C3CCCC3)C(=O)N(C)[C@H](C(=O)N(C)C)CC(=O)N(C)[C@@H](Cc3ccccc3)C(=O)N[C@@H]([C@@H](C)CC)C(=O)N(C)CC(=O)N(C)[C@H]3CCCCCN(C3=O)[C@@H](Cc3ccc(F)cc3)C(=O)N(C)CC(=O)N[C@@H](CCc3cc(F)c(C(F)(F)F)c(F)c3)C(=O)N2C1 [PP1195] | 18300 pM | 74 pM | B (a compound having 3 or more and less than 10 is denoted as B) | B (a compound having 3 or more and less than 10 is denoted as B) | 

Second part, led by results:

Row | IC50 [4] | Kd [1, 8] | SMILES | NRAS/KRAS (ratio of KD value for NRAS to KD value for KRAS) [2, 6] | HRAS/KRAS (ratio of KD value for HRAS to KD value for KRAS) [3, 7] | other results
6 | 10800 pM |  | CCO[C@@H]1C[C@H]2C(=O)NC3(CCC3)C(=O)N(C)[C@@H](C3CCCC3)C(=O)N(C)[C@H](C(=O)N(C)C)CC(=O)N(C)[C@@H](COCC(F)(F)F)C(=O)N[C@@H]([C@@H](C)CC)C(=O)N(C)CC(=O)N(C)[C@H]3C/C=C\CCN(C3=O)[C@@H](Cc3ccc(C(F)(F)F)cc3)C(=O)N(C)CC(=O)N[C@@H](CCc3cc(F)c(C(F)(F)F)c(F)c3)C(=O)N2C1 [PP1267] |  |  | Kd ([1]; SPR, Single Cycle Kinetics, 1:1 binding model, GDP-bound KRAS wild-type protein, read-out: KRAS KD): 46 pM; NRAS/KRAS (ratio of KD value for NRAS to KD value for KRAS) ([2]; SPR, GDP-bound NRAS wild-type protein vs GDP-bound KRAS wild-type protein, KD ratio class): A (a compound having 10 or more and less than 20 is denoted as A); HRAS/KRAS (ratio of KD value for HRAS to KD value for KRAS) ([3]; SPR, GDP-bound HRAS wild-type protein vs GDP-bound KRAS wild-type protein, KD ratio class): A (a compound having 10 or more and less than 20 is denoted as A)
7 | 10400 pM | 60 pM | CCO[C@@H]1C[C@H]2C(=O)NC3(CCC3)C(=O)N(C)[C@@H](C3CCCC3)C(=O)N(C)[C@H](C(=O)N(C)C)CC(=O)N(C)[C@@H](CC3CCCC3)C(=O)N[C@@H]([C@@H](C)CC)C(=O)N(C)CC(=O)N(C)[C@H]3C/C=C\CCN(C3=O)[C@@H](Cc3ccc(C(F)(F)F)cc3)C(=O)N(C)CC(=O)N[C@@H](CCc3cc(F)c(C(F)(F)F)c(F)c3)C(=O)N2C1 [PP1112, (2S,8S,12R,14S,20S,23S,27S,30S,36S,38Z)-20-cyclopentyl-27-(cyclopentylmethyl)-8-[2-[3,5-difluoro-4-(trifluoromethyl)phenyl]ethyl]-12-ethoxy-N,N,4,19,22,26,32,35-octamethyl-30-[(1S)-1-methylpropyl]-3,6,9,15,18,21,25,28,31,34,42-undecaoxo-2-[[4-(trifluoromethyl)phenyl]methyl]spiro[1,4,7,10,16,19,22,26,29,32,35-undecazatricyclo[34.5.1.0^10,14]dotetracont-38-ene-17,1′-cyclobutane]-23-carboxamide] | A (a compound having 10 or more and less than 20 is denoted as A) | B (a compound having 3 or more and less than 10 is denoted as B) | 
8 | 173000 pM | 430 pM | CC[C@H](C)[C@@H]1NC(=O)[C@H](CC)N(C)C(=O)C[C@@H](C(=O)N(C)C)N(C)C(=O)[C@H](C2CCCC2)N(C)C(=O)C2(CCC2)NC(=O)[C@H](CC2CCCCC2)N(C)C(=O)[C@H](CCc2cc(F)c(C(F)(F)F)c(F)c2)NC(=O)CN(C)C(=O)[C@H](Cc2ccc(C(F)(F)F)cc2)N2CC/C=C\C[C@@H](C2=O)N(C)C(=O)CN(C)C1=O [PP1149] | A (a compound having 10 or more and less than 20 is denoted as A) | A (a compound having 10 or more and less than 20 is denoted as A) | 
